“And” between values parts separate entries of the source, which are not always exact repeats. Identical values can stand only once. Peptide text beside a SMILES is read from it. * marks the point of attachment. βNA = c1ccc2cc(N*)ccc2c1
Assays:
[1] = Cytotoxicity, AlamarBlue method; format: cell-based, human; conditions: human, human monocyte-derived macrophages, three days of exposure, AlamarBlue
Procedure: (§1) The blood was collected from healthy donors and the peripheral blood mononuclear cells were isolated by Ficoll-Paque Plus (GE Healthcare, Freiburg, Germany) density gradient centrifugation as previously described ([Machado et al., 2016]). […] Fresh medium was added at day 4 post isolation. The effect of the compounds on human monocyte-derived macrophages was evaluated using the AlamarBlue method (Molecular Probes, Life Technologies) ([O’Brien et al., 2000]), and by measuring the release of the lactate dehydrogenase (LDH) into the culture supernatants using the Pierce LDH Cytotoxicity Assay (ThermoFisher Scientific, Waltham, MA, USA) ([Chan, Moriwaki & Rosa, 2013]) according to the manufacturer’s instructions. Briefly, 5 × 10^4 cells were seeded in 96-well microplates treated with the compounds, and incubated at 37 °C with 5% CO2. After 72 h of treatment, the cell viability was assessed. For the AlamarBlue method, the dye was added to each well to a final concentration of 10% and incubated overnight at 37 °C and 5% CO2. The fluorescence was measured with a 540/35 excitation filter and a 590/20 emission filter in a Synergy HT multi-mode microplate reader. The release of LDH from damaged cells into culture supernatants, as an indicator of cytotoxicity, was measured in serum-free medium. Here the amount of enzyme activity correlates to the number of damaged cells. The specific lysis was calculated as follows: (treated cells—spontaneous LDH release)/ (maximum LDH release—spontaneous LDH release) ×100.

[2] = system: human monocyte-derived macrophages; test: Cytotoxicity, AlamarBlue method; format: cell-based; conditions: for AlamarBlue fluorescence 530/25,590/35 (raw well reading): 72 h, listed as PAN
Procedure: as §1

[3] = system: human monocyte-derived macrophages; test: Cytotoxicity, LDH release; format: cell-based; conditions: raw well reading, listed as PAN
Procedure: as §1

[4] = concentration 10 (unit not given)
[5] = concentration 20 (unit not given)
[6] = concentration 40 (unit not given)
[7] = concentration 80 (unit not given)
[8] = concentration 160 (unit not given)
[9] = concentration 320 (unit not given)
[10] = concentration 640 (unit not given)
[11] = concentration 1280 (unit not given)
[12] = concentration 2560 (unit not given)

## N=C(N)NCCC[C@H](NC(=O)[C@@H](N)Cc1ccccc1)C(=O)Nc1ccc2ccccc2c1 [PAβN] (H-Phe-Arg-βNA)
[1]; read-out: CC50
  CC50 at 3 days: 1270 µM
[1]; read-out: CC90
  CC90 at 3 days: 3600 µM
[2]; 10 uM
  AlamarBlue fluorescence 530/25,590/35 (raw well reading): 5144 and 4515 and 5435
[2]; 20 uM
  AlamarBlue fluorescence 530/25,590/35 (raw well reading): 4321 and 4369 and 4263
[2]; 40 uM
  AlamarBlue fluorescence 530/25,590/35 (raw well reading): 4438 and 4039 and 4264
[2]; 80 uM
  AlamarBlue fluorescence 530/25,590/35 (raw well reading): 3781 and 3772 and 3994
[2]; 160 uM
  AlamarBlue fluorescence 530/25,590/35 (raw well reading): 3584 and 4033 and 3977
[2]; 320 uM
  AlamarBlue fluorescence 530/25,590/35 (raw well reading): 3356 and 3644 and 3382
[2]; 640 uM
  AlamarBlue fluorescence 530/25,590/35 (raw well reading): 3650 and 3381 and 3133
[2]; 1280 uM
  AlamarBlue fluorescence 530/25,590/35 (raw well reading): 2305 and 2619 and 2474
[2]; three days of exposure, AlamarBlue
  CC10: 447.71 µM
[3]; [4]
  Pierce LDH absorbance 490: 0.218 and 0.187 and 0.203
  Pierce LDH absorbance 630: 0.102 and 0.108 and 0.118
[3]; [5]
  Pierce LDH absorbance 490: 0.185 and 0.182
  Pierce LDH absorbance 630: 0.094 and 0.098 and 0.113
[3]; [6]
  Pierce LDH absorbance 490: 0.213 and 0.202 and 0.198
  Pierce LDH absorbance 630: 0.106 and 0.115 and 0.108
[3]; [7]
  Pierce LDH absorbance 490: 0.221 and 0.196 and 0.201
  Pierce LDH absorbance 630: 0.11 and 0.102 and 0.112
[3]; [8]
  Pierce LDH absorbance 490: 0.25 and 0.23 and 0.207
  Pierce LDH absorbance 630: 0.098 and 0.096 and 0.105
[3]; [9]
  Pierce LDH absorbance 490: 0.226 and 0.222 and 0.196
  Pierce LDH absorbance 630: 0.099 and 0.109 and 0.1
[3]; [10]
  Pierce LDH absorbance 490: 0.201 and 0.208 and 0.215
  Pierce LDH absorbance 630: 0.096 and 0.11 and 0.112
[3]; [11]
  Pierce LDH absorbance 490: 0.434 and 0.517 and 0.508
  Pierce LDH absorbance 630: 0.175 and 0.213 and 0.218
[3]; [12]
  Pierce LDH absorbance 490: 0.612 and 0.538 and 0.513
  Pierce LDH absorbance 630: 0.334 and 0.228 and 0.206
